The target in experiment [1] is T1, glucocorticoid receptor (GR) (Homo sapiens, UniProt P04150).
T1 construct: endogenous in cells; host or cells: primary fibroblast-like synoviocytes from RA patients
T1 sequence (P04150 1-777): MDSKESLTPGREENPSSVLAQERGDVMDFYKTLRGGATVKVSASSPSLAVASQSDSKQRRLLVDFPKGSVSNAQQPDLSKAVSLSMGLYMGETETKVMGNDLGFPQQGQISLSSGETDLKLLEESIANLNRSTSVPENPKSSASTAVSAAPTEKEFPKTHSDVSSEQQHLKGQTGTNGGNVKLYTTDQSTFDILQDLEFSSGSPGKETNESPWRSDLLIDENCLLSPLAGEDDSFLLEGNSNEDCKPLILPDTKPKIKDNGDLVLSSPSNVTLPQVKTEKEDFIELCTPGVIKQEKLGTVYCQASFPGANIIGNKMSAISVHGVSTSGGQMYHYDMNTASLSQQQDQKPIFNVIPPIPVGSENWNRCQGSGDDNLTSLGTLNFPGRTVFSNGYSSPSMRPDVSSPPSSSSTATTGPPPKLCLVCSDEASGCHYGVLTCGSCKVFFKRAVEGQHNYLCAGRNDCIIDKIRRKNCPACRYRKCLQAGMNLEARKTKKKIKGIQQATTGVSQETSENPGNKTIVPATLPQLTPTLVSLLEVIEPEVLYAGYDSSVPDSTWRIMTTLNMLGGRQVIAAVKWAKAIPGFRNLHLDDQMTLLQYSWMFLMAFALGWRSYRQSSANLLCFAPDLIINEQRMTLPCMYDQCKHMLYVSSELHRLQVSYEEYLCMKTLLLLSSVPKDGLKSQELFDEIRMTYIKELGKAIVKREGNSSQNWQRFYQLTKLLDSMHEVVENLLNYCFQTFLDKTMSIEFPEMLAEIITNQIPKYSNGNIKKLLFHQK
Put plainly: Western blot of homologous down-regulation of GR in FLS. Format: cell-based. Particulars: 10 μM, 3, 6, 9 or 24 hours, FIG. 22A. On the procedure:
CpdA was synthesized as described previously. […] They were sacrificed and livers were isolated. […] Gene expression of HPRT was used for normalization. […] Gene expression of HPRT was used for normalization. […] Gene expression of HPRT was used for normalization. Statistical significance was determined by one way anova. […] Gene expression of HPRT was used for normalization. […] Gene expression of HPRT was used for normalization. Statistical significance was determined by one way anova. […] Statistical significance was determined with a Kruskal-Wallis test.
Western blot analysis was performed on total protein extracts with an anti-GR(H-300) antibody. The detection of ERK was used as a loading control. After 8 days of treatment liver samples were taken from the PBS, DEX (20 μg) or CpdA (300 μg) treated DBA/1 mice (FIG. 22B). Q-PCR was performed for the detection of GR in the different samples. Statistical significance was determined with a Mann-Whitney Test. FLS were pre-treated with solvent, DEX (1 μM) or CpdA (10 μM) for 1 hour (set-up 1) or 24 hours (set-up 2), as indicated in the figures. Afterwards, TNF (2000 units/ml) was added for 6 h. Western blot analysis was performed on total extracts with an anti-GR(H-300) antibody (FIG. 19A). Detection of ERK was used as a loading control. […] Statistical significance was determined by one way anova. […]
In general terms: In western blotting, separated proteins are transferred to a membrane and probed.

The subject of experiment [2] is L363 cell line. Put plainly: MTT test, cell viability of L363 cells. In kind it is cell-based, human. Particulars: Homo sapiens, L-363; 10^−4 M; 10% FCS; FIG. 3B; read-out: Block of L363 cell viability. On the procedure:
The MTT test is a standard assay addressing cell toxicity of a compound. It is based on the principle that after 3-4 hours of cell incubation with MTT (3-(4,5-dimethylthiazole-2-yl)-2,5-diphenyl tetrazolium bromide) so-called purple formazan crystals develop in living and early apoptotic cells. Dead cells don't produce formazan crystals.
Different cell lines were tested. Unless indicated differently, A549 human lung epithelial cells (derived from lung carcinoma) and L929sA murine fibroblast cells were cultured in DMEM with 10% FCS, 100 U/ml penicillin and 100 μg/ml streptomycin. Unless indicated differently, the human multiple myeloma cell lines L363, U266 and MM1.S were cultured in RPMI 1640 with Glutamax-I, supplemented with 10% FCS, 100 U/ml penicillin and 100 μg/ml streptomycin. Cells were seeded at 5000 cells/well (for adherent A549 and L929sA cells) or at 10000 cells/well (for the multiple myeloma lines in suspension) in 96 well plates. Cells were incubated in the presence of the respective synephrine compounds or vehicle (EtOH; for control test) in a final volume of 0.2 ml for 24 or 48 hours at 37° C. Subsequently, 20 μl of MTT solution (5 mg/ml in phosphate-buffered saline) was added to each well. After 4 hours incubation at 37° C., 80 μl of the extraction buffer (10% SDS, 0.01 M HCl) was added. After overnight incubation at room temperature, the optical densities at 590 nm were measured. Results are illustrated in FIGS. 2 to 6 and are expressed as percentage of viable cells as compared to vehicle-treated controls.
The MTT test was further extended to include alternative synephrine derivatives and a range of multiple myeloma cell lines for which the results are illustrated by FIGS. 3A, 3B and 4A. Human multiple myeloma cell lines L363, U266 and MM1.S were cultured in RPMI 1640 with Glutamax-I, supplemented with 10% FCS, 100 U/ml penicillin and 100 μg/ml streptomycin. Cells were seeded at 10000 cells/well in 96 well plates. Cells were incubated in the presence of test compounds or vehicle in a final volume of 0.2 ml for 24 or 48 hours at 37° C. The test compounds included in the test were the synephrine derivatives CpdA, Naphth, Benz and Isobut, and DEX as a comparative example. Subsequently, 20 μl of MTT solution (5 mg/ml in phosphate-buffered saline) was added to each well. After 4 hours incubation at 37° C., 80 μl of the extraction buffer (10% SDS, 0.01 M HCl) was added. After 48 hours incubation at room temperature, the optical densities at 590 nm were measured. Results are expressed as percentage of viable cells as compared to vehicle-treated controls.
On the technique in general: Formazan colour is commonly taken as a measure of viable cells.

For `CNCC(Cl)c1ccc(OC(C)=O)cc1.Cl` (centres unmarked) [CpdA, 2-(4-acetoxyphenyl)-2-chloro-N-methyl-ethylammonium chloride], the “Ligand-induced down-regulation of the glucocorticoid receptor (GR)” value in experiment [1] is on record as “does not evoke a ligand-induced down-regulation of the glucocorticoid receptor (GR)”. For the same compound, in experiment [2], the cytotoxicity at 100 µM came to 50%.

These data come from patent US8039501B2, “Synephrine derivatives useful as anti-inflammatory agents” (Universiteit Gent, priority 2005, dated 2011).
